Measurements taken from patent US20150344457A1, “METHODS OF INHIBITING PRMT5” (EPIZYME, INC., priority 2012, published 2015).
Where two headings read alike, the source gives them in different places.

Assays:
[1] = tested on: Z-138 cells; assay: Z-138 Proliferation Assay (Cell Titer Glo, 5 days); format: cell-based; conditions: Homo sapiens
Procedure, shortened: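 Exponentially growing Z-138 cells (10,000 cells/ml) in RPMI 1640 with 10% FBS are exposed to nine-point 3-fold dilutions (final top concentration 20 μM, 0.2% DMSO) for 5 days at 37° C. Viability is measured as ATP by CellTiter-Glo luminescence. The 50% inhibitory concentration comes from a 4-parameter fit.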

[2] = target: T1, PRMT5/MEP50 (Homo sapiens, UniProt O14744); assay: PRMT5 Biochemical Assay (PRMT5/MEP50 enzyme assay on peptide substrate, 3H-SAM Flashplate); conditions: read-out: Biochemical IC50
T1 construct: Expressed full-length human Flag-PRMT5/6His-MeP50 protein complex was purified; made in house; host or cells: Spodoptera frugiperda (SF9) insect cells, baculovirus (pDEST8)

[3] = 120 h, Table A-2, 5 days, top concentration 20 μM
[4] = Table A-2, PRMT5/MEP50 4 nM, 3H-SAM 75 nM, peptide 40 nM

T1 sequence (O14744 with tags, fused parts or gaps): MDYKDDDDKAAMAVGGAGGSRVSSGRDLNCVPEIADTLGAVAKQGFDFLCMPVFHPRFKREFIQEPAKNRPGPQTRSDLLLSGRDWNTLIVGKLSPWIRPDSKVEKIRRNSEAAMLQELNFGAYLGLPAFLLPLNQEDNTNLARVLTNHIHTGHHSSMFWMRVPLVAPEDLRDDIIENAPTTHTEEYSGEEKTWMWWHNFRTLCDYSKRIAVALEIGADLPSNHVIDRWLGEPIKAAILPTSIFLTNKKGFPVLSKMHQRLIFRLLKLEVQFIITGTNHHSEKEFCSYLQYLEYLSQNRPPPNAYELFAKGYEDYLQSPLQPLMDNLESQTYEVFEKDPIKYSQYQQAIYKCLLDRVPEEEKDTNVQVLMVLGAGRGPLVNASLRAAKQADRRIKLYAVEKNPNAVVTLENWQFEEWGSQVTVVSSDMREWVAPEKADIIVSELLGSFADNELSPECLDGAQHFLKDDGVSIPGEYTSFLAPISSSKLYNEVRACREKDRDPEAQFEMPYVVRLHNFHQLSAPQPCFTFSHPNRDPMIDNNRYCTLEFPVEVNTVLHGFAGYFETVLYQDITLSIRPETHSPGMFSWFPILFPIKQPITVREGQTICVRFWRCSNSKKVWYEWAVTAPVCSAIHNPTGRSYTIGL
T1 sequence (Q9BQA1 with tags, fused parts or gaps partner limits assumed): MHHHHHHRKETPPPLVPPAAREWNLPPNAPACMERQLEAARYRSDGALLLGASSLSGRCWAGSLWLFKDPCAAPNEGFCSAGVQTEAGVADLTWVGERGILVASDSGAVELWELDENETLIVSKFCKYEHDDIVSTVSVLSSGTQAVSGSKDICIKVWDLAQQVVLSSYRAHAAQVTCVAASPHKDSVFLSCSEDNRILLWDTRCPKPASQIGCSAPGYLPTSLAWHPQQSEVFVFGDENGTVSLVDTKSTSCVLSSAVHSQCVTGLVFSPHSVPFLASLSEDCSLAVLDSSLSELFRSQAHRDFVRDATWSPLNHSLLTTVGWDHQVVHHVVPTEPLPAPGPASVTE

| SMILES | EC50 [1, 3] [µM] | IC50 [2, 4] [µM] | EC50 ([1]; Table D-2) [µM] | IC50 ([2]; Table D-2) [µM] |
| --- | --- | --- | --- | --- |
| O=C(COc1ccc2c(cnn2C2CCNC2)c1)NCC(O)CN1CCc2ccccc2C1 (stereo not drawn) [Compound A95] | 10 to 50 | < 0.1 | – | – |
| NC(=O)c1cccc(-c2cccc(OCC(O)CN3CCc4ccccc4C3)c2)c1 (stereo not drawn) [Compound D171] | – | – | > 20 | 0.101 to 1 |
| OC(COc1cccc(-c2ccc3ncn(-c4ccccc4)c3c2)c1)CN1CCc2ccccc2C1 (stereo not drawn) [Compound D104] | – | – | > 20 | 0.101 to 1 |
| OC(COc1cccc(-c2ccc3ncn(C4CCOCC4)c3c2)c1)CN1CCc2ccccc2C1 (stereo not drawn) [Compound D103] | – | – | 1 to 10 | 0.101 to 1 |
| Cn1cnc2cnc(-c3cccc(OCC(O)CN4CCc5ccccc5C4)c3)nc21 (stereo not drawn) [Compound D191] | – | – | 1 to 10 | 0.101 to 1 |
| Cn1ncc2ccc(-c3cccc(OCC(O)CN4CCc5ccccc5C4)c3)cc21 (stereo not drawn) [Compound D106] | – | – | > 20 | < 0.1 |
| Cn1cnc2ccc(-c3cccc(OCC(O)CN4CCc5ccccc5C4)c3)nc21 (stereo not drawn) [Compound D189] | – | – | 0.101 to 1 | < 0.1 |
| CN(C)c1ncc(-c2cccc(OCC(O)CN3CCc4ccccc4C3)c2)cn1 (stereo not drawn) [Compound D125] | – | – | 10 to 40 | 0.101 to 1 |
| O=C1COc2ccc(-c3cccc(OCC(O)CN4CCc5ccccc5C4)c3)cc2N1 (stereo not drawn) [Compound D156] | – | – | 10 to 40 | 0.101 to 1 |
| OC(COc1cccc(-c2ccc3[nH]ncc3c2)c1)CN1CCc2ccccc2C1 (stereo not drawn) [Compound D107] | – | – | > 20 | 0.101 to 1 |
| O=C(COc1cccc(CN2CCOCC2)c1)NCC(O)CN1CCc2ccccc2C1 (stereo not drawn) [Compound A75] | 1 to 10 | < 0.1 | – | – |
| Cn1ncc2ccc(-c3cc(NCC(O)CN4CCc5ccccc5C4)ncn3)cc21 (stereo not drawn) [Compound D205] | – | – | > 20 | 0.101 to 1 |
| OC(COc1cccc(-c2cccnc2F)c1)CN1CCc2ccccc2C1 (stereo not drawn) [Compound D139] | – | – | > 20 | 0.101 to 1 |
| COC(=O)c1cncc(-c2cccc(OCC(O)CN3CCc4ccccc4C3)c2)c1 (stereo not drawn) [Compound D180] | – | – | > 20 | 1 to 10 |
| CN1C(=O)COc2cccc(OCC(=O)NCC(O)CN3CCc4ccccc4C3)c21 (stereo not drawn) [Compound A80] | 10 to 50 | < 0.1 | – | – |
| CS(=O)(=O)Nc1ccc(-c2cccc(OCC(O)CN3CCc4ccccc4C3)c2)cc1 (stereo not drawn) [Compound D129] | – | – | 10 to 40 | 0.101 to 1 |
| CC(=O)c1ccc(-c2cccc(OCC(O)CN3CCc4ccccc4C3)c2)cc1 (stereo not drawn) [Compound D137] | – | – | > 20 | 0.101 to 1 |

| SMILES | EC50 [1, 3] [µM] | IC50 [2, 4] [µM] | EC50 ([1]; Table D-2) [µM] | IC50 ([2]; Table D-2) [µM] |
| --- | --- | --- | --- | --- |
| CN(CC(O)CN1CCc2ccccc2C1)c1cccc(CNC2CCOCC2)c1 (stereo not drawn) [Compound D116] | – | – | > 20 | < 0.1 |
| CNC(=O)c1cccc(-c2cccc(OCC(O)CN3CCc4ccccc4C3)c2)c1 (stereo not drawn) [Compound D186] | – | – | > 20 | 0.101 to 1 |
| Cn1ncc2cc(-c3cccc(OCC(O)CN4CCc5ccccc5C4)c3)ccc21 (stereo not drawn) [Compound D108] | – | – | 10 to 40 | < 0.1 |
| OC(COc1cccc(-c2ccc3ncn(Cc4ccccc4)c3c2)c1)CN1CCc2ccccc2C1 (stereo not drawn) [Compound D105] | – | – | 10 to 40 | < 0.1 |
| CNC(=O)c1cncc(-c2cccc(OCC(O)CN3CCc4ccccc4C3)c2)c1 (stereo not drawn) [Compound D182] | – | – | > 20 | 1 to 10 |
| OC(COc1cccc(-c2ccccc2C(F)(F)F)c1)CN1CCc2ccccc2C1 (stereo not drawn) [Compound D132] | – | – | > 20 | 0.101 to 1 |
| O=c1[nH]c2ccc(-c3cccc(OCC(O)CN4CCc5ccccc5C4)c3)cc2[nH]1 (stereo not drawn) [Compound D109] | – | – | 10 to 40 | 0.101 to 1 |
| C[C@H](Oc1cccc2cccnc12)C(=O)NC[C@H](O)CN1CCc2ccccc2C1 [Compound A76] | 1 to 10 | < 0.1 | – | – |
| Cc1ccc(F)c(-c2cccc(OCC(O)CN3CCc4ccccc4C3)c2)c1 (stereo not drawn) [Compound D138] | – | – | > 20 | 0.101 to 1 |
| O=C(COc1c(CN2CCOCC2)ccc2cccnc12)NC[C@H](O)CN1CCc2ccccc2C1 [Compound A94] | 10 to 50 | < 0.1 | – | – |
| CC(=O)N1CCN(c2ccccc2OCC(=O)NCC(O)CN2CCc3ccccc3C2)CC1 (stereo not drawn) [Compound A90] | 10 to 50 | < 0.1 | – | – |
| CC(=O)Nc1cccc(-c2cccc(OCC(O)CN3CCc4ccccc4C3)c2)c1 (stereo not drawn) [Compound D169] | – | – | > 20 | 0.101 to 1 |
| O=C(Nc1cccc(OCC(O)CN2CCc3ccccc3C2)c1)c1cnccn1 (stereo not drawn) [Compound D145] | – | – | > 20 | 0.101 to 1 |
| Cn1ncc2ccc(-c3cc(COCC(O)CN4CCc5ccccc5C4)on3)cc21 (stereo not drawn) [Compound D136] | – | – | > 20 | 0.101 to 1 |
| O=C(COc1cccc(NC2CCOCC2)c1)NCC(O)CN1CCc2ccccc2C1 (stereo not drawn) [Compound A93] | 1 to 10 | < 0.1 | – | – |
| Cn1cnc2ccc(-c3cncc(NCC(O)CN4CCc5ccccc5C4)n3)cc21 (stereo not drawn) [Compound D121] | – | – | > 20 | 0.101 to 1 |
